Assay results as given in ChEMBL document CHEMBL1201862, “PubChem BioAssay data set” (2004).
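Cultured in 96-well plates, cells were exposed to test compound for 48 hours across five concentrations. The concentration for 50% growth inhibition is given as GI50.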 Active and inactive are the calls of the source. Cut-off read from the data, not from the text of the source: active = GI50 up to about 1.1 µM and inactive = higher.

Key:
Experiment in all cases: inhibition of tumour cell growth, NCI panel, 48 h
HL-60 = test system: HL-60
CCRF-CEM = test system: CCRF-CEM
UACC-257 = test system: UACC-257
M19-MEL = test system: M19-MEL
K562 = test system: K562
UACC-62 = test system: UACC-62
SNB-78 = test system: SNB-78
COLO 205 = test system: COLO 205
SNB-19 = test system: SNB-19
A498 = test system: A498
ACHN = test system: ACHN
OVCAR-5 = test system: OVCAR-5
HCC 2998 = test system: HCC 2998
M14 = test system: M14
SK-MEL-28 = test system: SK-MEL-28
KM-20L2 = test system: KM-20L2
A549 = test system: A549
EKVX = test system: EKVX
SK-MEL-5 = test system: SK-MEL-5
DLD-1 = test system: DLD-1
HCT-15 = test system: HCT-15
NCI-H460 = test system: NCI-H460
MOLT-4 = test system: MOLT-4
HOP-62 = test system: HOP-62
SN12C = test system: SN12C
UO-31 = test system: UO-31
HCT-116 = test system: HCT-116
RXF 393 = test system: RXF 393
SW-620 = test system: SW-620
DMS-273 = test system: DMS-273
OVCAR-8 = test system: OVCAR-8
SK-MEL-2 = test system: SK-MEL-2
CAKI-1 = test system: CAKI-1
SF-295 = test system: SF-295
NCI-H226 = test system: NCI-H226
786-0 = test system: 786-0
HOP-92 = test system: HOP-92
OVCAR-4 = test system: OVCAR-4
DMS-114 = test system: DMS-114
KM12 = test system: KM12
SF-539 = test system: SF-539
NCI-H522 = test system: NCI-H522
XF498 = test system: XF498
IGROV-1 = test system: IGROV-1
U-251 = test system: U-251
SF-268 = test system: SF-268
NCI-H23 = test system: NCI-H23
TK-10 = test system: TK-10
SNB-75 = test system: SNB-75
SK-OV-3 = test system: SK-OV-3
LXFL 529 = test system: LXFL 529
HT-29 = test system: HT-29
RXF 631 = test system: RXF 631
Malme-3M = test system: Malme-3M
HOP-18 = test system: HOP-18
LOX IMVI = test system: LOX IMVI
OVCAR-3 = test system: OVCAR-3
RPMI-8226 = test system: RPMI-8226
SR = test system: SR

CC(=O)O[C@H]1CC[C@@]2(C)C(=CC[C@@H]3C2CC[C@]2(C)C(=O)NC(=O)CC32)C1 (stereo partly specified)
GI50 (HL-60): > 63.1 µM (inactive)
GI50 (CCRF-CEM): > 73.8 µM (inactive)
GI50 (UACC-257): > 100 µM (inactive)
GI50 (M19-MEL): > 100 µM (inactive)
GI50 (K562): > 56 µM (inactive)
GI50 (UACC-62): > 100 µM (inactive)
GI50 (SNB-78): > 100 µM (inactive)
GI50 (COLO 205): > 100 µM (inactive)
GI50 (SNB-19): > 100 µM (inactive)
GI50 (A498): > 100 µM (inactive)
GI50 (ACHN): > 100 µM (inactive)
GI50 (OVCAR-5): > 100 µM (inactive)
GI50 (HCC 2998): > 100 µM (inactive)
GI50 (M14): > 100 µM (inactive)
GI50 (SK-MEL-28): 53.5 µM (inactive)
GI50 (KM-20L2): > 100 µM (inactive)
GI50 (A549): > 100 µM (inactive)
GI50 (EKVX): > 100 µM (inactive)
GI50 (SK-MEL-5): > 100 µM (inactive)
GI50 (DLD-1): > 100 µM (inactive)
GI50 (HCT-15): 68.4 µM
GI50 (NCI-H460): > 100 µM (inactive)
GI50 (MOLT-4): > 100 µM (inactive)
GI50 (HOP-62): > 100 µM (inactive)
GI50 (SN12C): > 100 µM (inactive)
GI50 (UO-31): > 100 µM (inactive)
GI50 (HCT-116): > 100 µM (inactive)
GI50 (RXF 393): 35.5 µM (inactive)
GI50 (SW-620): > 56.6 µM (inactive)
GI50 (DMS-273): 62.7 µM (inactive)
GI50 (OVCAR-8): > 100 µM (inactive)
GI50 (SK-MEL-2): > 100 µM (inactive)
GI50 (CAKI-1): > 100 µM (inactive)
GI50 (SF-295): > 100 µM (inactive)
GI50 (NCI-H226): > 100 µM (inactive)
GI50 (786-0): 63.5 µM (inactive)
GI50 (HOP-92): > 100 µM (inactive)
GI50 (OVCAR-4): > 100 µM (inactive)
GI50 (DMS-114): > 79.6 µM (inactive)
GI50 (KM12): > 100 µM (inactive)
GI50 (SF-539): > 100 µM (inactive)
GI50 (NCI-H522): 27.9 µM (inactive)
GI50 (XF498): > 100 µM (inactive)
GI50 (IGROV-1): > 100 µM (inactive)
GI50 (U-251): 58.6 µM (inactive)
GI50 (SF-268): > 100 µM (inactive)
GI50 (NCI-H23): > 100 µM (inactive)
GI50 (TK-10): > 100 µM (inactive)
GI50 (SNB-75): > 100 µM (inactive)
GI50 (SK-OV-3): > 100 µM (inactive)
GI50 (LXFL 529): > 100 µM (inactive)
GI50 (HT-29): 97.5 µM (inactive)
GI50 (RXF 631): > 100 µM (inactive)
GI50 (Malme-3M): > 100 µM (inactive)
GI50 (HOP-18): > 100 µM (inactive)
GI50 (LOX IMVI): 40.3 µM (inactive)

COC(=O)C1=CC2CC1C(S(=O)(=O)c1ccccc1)C2S(=O)(=O)c1ccccc1 (stereo unspecified)
GI50 (HL-60): 2.62 µM (inactive)
GI50 (CCRF-CEM): 2.92 µM (inactive)
GI50 (UACC-257): 15.2 µM (inactive)
GI50 (M19-MEL): 18.3 µM (inactive)
GI50 (K562): 5.14 µM (inactive)
GI50 (UACC-62): 22.1 µM (inactive)
GI50 (COLO 205): 8.45 µM (inactive)
GI50 (SNB-19): > 100 µM (inactive)
GI50 (A498): 17.6 µM (inactive)
GI50 (OVCAR-3): 7.23 µM (inactive)
GI50 (ACHN): 7.48 µM (inactive)
GI50 (OVCAR-5): 14.7 µM (inactive)
GI50 (HCC 2998): 19.7 µM (inactive)
GI50 (M14): 11.3 µM (inactive)
GI50 (SK-MEL-28): 14.1 µM (inactive)
GI50 (KM-20L2): 16.4 µM (inactive)
GI50 (A549): 24.8 µM (inactive)
GI50 (SK-MEL-5): 16.9 µM (inactive)
GI50 (DLD-1): 14.5 µM (inactive)
GI50 (HCT-15): 12.5 µM
GI50 (RPMI-8226): 5.4 µM (inactive)
GI50 (NCI-H460): 21.6 µM (inactive)
GI50 (MOLT-4): 4.42 µM (inactive)
GI50 (HOP-62): 54.3 µM (inactive)
GI50 (SN12C): 14 µM (inactive)
GI50 (UO-31): 14.3 µM (inactive)
GI50 (HCT-116): 14.8 µM (inactive)
GI50 (SW-620): 4.59 µM (inactive)
GI50 (DMS-273): 10.5 µM (inactive)
GI50 (OVCAR-8): 13 µM (inactive)
GI50 (CAKI-1): 7.83 µM (inactive)
GI50 (SF-295): 21.3 µM (inactive)
GI50 (SR): 2.56 µM (inactive)
GI50 (NCI-H226): 17.6 µM (inactive)
GI50 (786-0): 10.3 µM (inactive)
GI50 (HOP-92): 15.1 µM (inactive)
GI50 (OVCAR-4): 17.5 µM (inactive)
GI50 (DMS-114): 15.5 µM (inactive)
GI50 (IGROV-1): 32.7 µM (inactive)
GI50 (U-251): 17.3 µM (inactive)
GI50 (SF-268): 22.9 µM (inactive)
GI50 (NCI-H23): 18.1 µM (inactive)
GI50 (TK-10): 10.4 µM (inactive)
GI50 (SK-OV-3): 44.3 µM (inactive)
GI50 (LXFL 529): 5.81 µM (inactive)
GI50 (HT-29): 13.8 µM (inactive)
GI50 (RXF 631): 13.5 µM (inactive)
GI50 (Malme-3M): 10.7 µM (inactive)
GI50 (HOP-18): 16.7 µM (inactive)
GI50 (LOX IMVI): 13.7 µM (inactive)
